Tested on: NCI-H295R
Test: IC50 (antiproliferative, ATP content)
Conditions: 48 h
Method in brief: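 Serum-free ITS-supplemented DMEM was used to seed 1500 adrenocortical carcinoma cells per well in 1536-well plates, which were cultured overnight. Eight final concentrations of each library compound, from 0.6 nM to 46 µM, were added by pin transfer, followed by 48 h at 37 °C in 5% CO2 and a CellTiter-Glo ATP read after 20 min at room temperature. Luminescence was set against vehicle and positive-control wells, and the IC50 was obtained by logistic curve fitting. Any compound with no concentration response was entered as above the top dose.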

SMILES | IC50
Cc1nc(-c2ccc(Cl)cc2)oc1COC(C)(C)C(=O)O | > 46 µM
O=C(CCNNC(=O)c1ccncc1)NCc1ccccc1 | > 46 µM
O=C(C)N(CC4)CCN4C(C=C5)=CC=C5OC[C@]2([H])O[C@@](OC2)(CN3C=NC=C3)[C@@]1=CC=C(Cl)C=C1Cl | > 46 µM
C/C(=N\Cc1ccccc1)c1ccccc1O | > 46 µM
CNC[C@H](O)[C@@H](O)[C@H](O)[C@H](O)CO | > 46 µM
CC1C(=O)CC2C3(C)CCC2(C(C)C(=O)O)C(=O)C13 (centres undefined) | > 46 µM
Cc1nc2n(c(=O)c1CCN1CCC(c3noc4cc(F)ccc34)CC1)CCCC2 | > 46 µM
Cc1nc2ccc(CN(C)c3ccc(C(=O)N[C@@H](CCC(=O)O)C(=O)O)s3)cc2c(=O)[nH]1 | > 46 µM
CCn1cc(C(=O)O)c(=O)c2cnc(N3CCNCC3)nc21 | > 46 µM
CC1=C(/C=C/C(C)=C/C=C/C(C)=C/C(=O)Oc2c(C)c(C)c3c(c2C)CC[C@@](C)(CCC[C@H](C)CCC[C@H](C)CCCC(C)C)O3)C(C)(C)CCC1 | > 46 µM
CCC(Cc1c(I)cc(I)c(O)c1I)C(=O)O (centres undefined) | > 46 µM
Cc1ccc(C(=O)c2ccc(CC(=O)[O-])n2C)cc1.O.O.[Na+] | > 46 µM
OC(C#CCN1CCCC1)(c1ccccc1)c1ccccc1 | > 46 µM
NC(=O)NC(=O)Cc1ccccc1 | > 46 µM
CC(=O)N[C@@H](Cc1ccc(O)cc1)C(=O)O | > 46 µM
Nc1ccncc1N | > 46 µM
N#CCC(=O)NN | > 46 µM
CC(=O)Oc1ccc(C(=C2CCCCC2)c2ccc(OC(C)=O)cc2)cc1 | > 46 µM
COc1ccc(CN(CCN(C)C)c2ccccn2)cc1 | > 46 µM
O=C(OCc1ccccc1)c1ccccc1 | > 46 µM
CC(C(=O)O)c1ccc(-c2ccccc2)c(F)c1 (centres undefined) | > 46 µM
Cc1cc(CC(=O)[O-])n(C)c1C(=O)c1ccc(Cl)cc1.[Na+] | > 46 µM
O=[C@]([O-])[C@@H]2N1C([C@@]([H])(N3C(C)(C)NC(C4=CC=CC=C4)C3=O)[C@]([H])1SC(C)2C)=O.[K+] (some centres undefined) | > 46 µM
CC(C)(C)C(=O)OCOC(=O)[C@@H]1N2C(=O)[C@@H](NC(=O)[C@H](N)c3ccccc3)[C@H]2SC1(C)C | > 46 µM

SMILES | IC50
Cn1c(=O)c2[nH]c(Br)nc2n(C)c1=O | > 46 µM
CC(Cc1ccccc1)NC=O (centres undefined) | > 46 µM
O=C(O)[C@@H](S)[C@H](S)C(=O)O | > 46 µM
O=C(O)CCC(=O)c1ccc(-c2ccccc2)cc1 | > 46 µM
CC1OC(C)OC(C)O1 (centres undefined) | > 46 µM
Cc1cccc(C)c1NC(=O)C1CCCCN1C.Cl (centres undefined) | > 46 µM
Cn1sc(Cl)cc1=O | > 46 µM
O=c1ccn(C2OC(COP(=O)(O)OC3C(CO)OC(n4ccc(=O)[nH]c4=O)C3O)C(O)C2O)c(=O)[nH]1 (centres undefined) | > 46 µM
CC(O)CCCCn1c(=O)c2c(ncn2C)n(C)c1=O (centres undefined) | > 46 µM
S=C=Nc1ccc(N=C=S)cc1 | > 46 µM
CC(CCc1ccccc1)NC(C)C(O)c1ccc(O)cc1 (centres undefined) | > 46 µM
COc1ccc(NS(=O)(=O)c2ccc(N)cc2)nn1 | > 46 µM
Cl.Nc1ccc(/N=N/c2ccccc2)c(N)n1 | > 46 µM
CCNC(=O)N(CCCN(C)C)C(=O)[C@@H]1C[C@@H]2c3cccc4N\C=C(\C[C@H]2N(C1)CC=C)c34 | > 46 µM
NC(=O)OC[C@@H]1[C@H](NC(=O)/C(=N\OCC(=O)[O-])c2csc(N)n2)C(=O)N1S(=O)(=O)[O-].[Na+].[Na+] | > 46 µM
O=C(N[C@@H](CO)C(N[C@H](C(N[C@H](COC(C)(C)C)C(N[C@@H](CC(C)C)C(N[C@@H](CCCNC(N)=N)C(N6[C@H]([C@@](NNC(N)=O)=O)CCC6)=O)=O)=O)=O)CC4=CC=C(O)C=C4)=O)[C@@H](NC([C@@H](N[C@@]([C@@H](N5)CCC5=O)=O)CC3=CNC=N3)=O)CC1=CNC2=C1C=CC=C2.O=C(C)O | > 46 µM
NC[C@@H](C1)[C@]1([C@@]2=CC=CC=C2)C(N(CC)CC)=O.Cl | > 46 µM
C=CC[N@@+]1(C)CC[C@]23c4c5ccc(O)c4O[C@H]2C(=O)CC[C@@]3(O)[C@H]1C5.[I-] | > 46 µM
CC(/C=C/C=C(\C)C(=O)O[C@@H]1O[C@H](CO[C@@H]2O[C@H](CO)[C@@H](O)[C@H](O)[C@H]2O)[C@@H](O)[C@H](O)[C@H]1O)=C\C=C\C=C(C)\C=C\C=C(/C)C(=O)O[C@@H]1O[C@H](CO[C@@H]2O[C@H](CO)[C@@H](O)[C@H](O)[C@H]2O)[C@@H](O)[C@H](O)[C@H]1O | > 46 µM
CN(C)C(=O)Oc1cccc([N+](C)(C)C)c1.[Br-] | > 46 µM
CC(C)OC(=O)C(C)(C)Oc1ccc(C(=O)c2ccc(Cl)cc2)cc1 | > 46 µM
COc1ccc(OC)c(C(O)C(C)N)c1.Cl (centres undefined) | > 46 µM
NC[C@H]1O[C@H](O[C@H]2[C@H](O[C@@H]3O[C@H](CO)[C@@H](O)[C@H]3O)C(O)[C@H](N)C[C@@H]2N)[C@H](N)[C@@H](O)[C@@H]1O.O=S(=O)(O)O (some centres undefined) | > 46 µM
O=C(O)[C@@H]1C[C@H](CP(=O)(O)O)CCN1 | > 46 µM

SMILES | IC50
Cn1c(=O)c2c(ncn2CC2OCCO2)n(C)c1=O | > 46 µM
COc1ccc(CN2CCNCC2)c(OC)c1OC.Cl.Cl | > 46 µM
Cc1ccc(N(CC2=NCCN2)c2cccc(O)c2)cc1 | > 46 µM
Cl.NCc1ccc(S(N)(=O)=O)cc1 | > 46 µM
C=C1c2c(Cl)ccc(O)c2C(=O)C2=C(O)[C@]3(O)C(=O)C(C(N)=O)=C(O)[C@@H](N(C)C)[C@@H]3[C@@H](O)[C@H]12.O=C(O)c1cc(S(=O)(=O)O)ccc1O | > 46 µM
COc1c(O)cc2c(c1O)[C@@H]1O[C@H](CO)[C@@H](O)[C@H](O)[C@H]1OC2=O.O | > 46 µM
CCCCC/C=C\C/C=C\C/C=C\C/C=C\CCCC(=O)NCC(=O)O | > 46 µM
COc1cc2c(cc1OC)CC(=O)N(CCCN(C)C[C@H]1Cc3cc(OC)c(OC)cc31)CC2.Cl | > 46 µM
CCCCCCCCCCCCCCCC(=O)NCCO | > 46 µM
OC[C@H]1O[C@@H](O[C@@H]2[C@@H](CO)O[C@](O)(CO)[C@H]2O)[C@H](O)[C@@H](O)[C@H]1O | > 46 µM
C=C[C@]1(C)C[C@@H](OC(=O)CSC(C)(C)CNC(=O)[C@H](N)C(C)C)[C@]2(C)[C@H](C)CC[C@]3(CCC(=O)[C@H]32)[C@@H](C)[C@@H]1O | > 46 µM
CN[C@@H]1[C@H](O[C@H]2[C@H](O[C@H]3[C@H](O)[C@@H](O)[C@H](NC(=N)N)[C@@H](O)[C@@H]3NC(=N)N)O[C@@H](C)[C@]2(O)CO)O[C@@H](CO)[C@H](O)[C@H]1O.CN[C@@H]1[C@H](O[C@H]2[C@H](O[C@H]3[C@H](O)[C@@H](O)[C@H](NC(=N)N)[C@@H](O)[C@@H]3NC(=N)N)O[C@@H](C)[C@]2(O)CO)O[C@@H](CO)[C@H](O)[C@H]1O.O=S(=O)(O)O.O=S(=O)(O)O.O=S(=O)(O)O | > 46 µM
CCCOc1ccccc1-c1nc2[nH]nnc2c(=O)[nH]1 | > 46 µM
O=C1/C(=C2\Nc3ccccc3C2=O)Nc2ccccc21 | > 46 µM
Nc1ccc(C(=O)Oc2ccccc2)c(O)c1 | > 46 µM
COc1c2occc2cc2ccc(=O)oc12 | > 46 µM
O=c1[nH]c(=O)n([C@H]2C[C@H](O)[C@@H](CO)O2)cc1I | > 46 µM
CC(=O)Nc1c(I)cc(I)c(C(=O)O)c1I | > 46 µM
CCOC(=O)Cc1ccc(-c2ccccc2)cc1 | > 46 µM
CCCCOc1ccc(OCCCN2CCOCC2)cc1.Cl | > 46 µM
C=CC(N)CCC(=O)O (centres undefined) | > 46 µM
O=C(N/N=C/c1ccc([N+](=O)[O-])o1)c1cc([N+](=O)[O-])cc([N+](=O)[O-])c1O | > 46 µM
CC1(C)S[C@@H]2[C@H](NC(=O)C(C(=O)[O-])c3ccccc3)C(=O)N2[C@H]1C(=O)[O-].[Na+].[Na+] (some centres undefined) | > 46 µM
CCN(CC)CCOC(=O)C(Cc1cccc2ccccc12)CC1CCCO1.O=C(O)C(=O)O (centres undefined) | > 46 µM

SMILES | IC50
CN1CCN(c2c(F)cc3c(=O)c(C(=O)O)cn4c3c2SCC4)CC1.Cl | > 46 µM
C=C[C@@]1(C)CC(=O)[C@]2(O)[C@@]3(C)[C@@H](O)CCC(C)(C)[C@@H]3[C@H](O)[C@H](OC(C)=O)[C@@]2(C)O1 | > 46 µM
N/1C(N(\C=C\1)C)=S | > 46 µM
O=C(NCC(O)CO)c1c(I)c(C(=O)NCC(O)CO)c(I)c(N(CCO)C(=O)CO)c1I (centres undefined) | > 46 µM
NC(Cc1ccc(Cl)cc1)C(=O)O (centres undefined) | > 46 µM
CC(C)(C(=O)c1cccnc1)c1cccnc1 | > 46 µM
O=C(O)CCCCC1CCSS1 (centres undefined) | > 46 µM
O=C(O)CCC(=O)Nc1ccc(S(=O)(=O)Nc2nccs2)cc1 | > 46 µM
NNCCc1ccccc1.O=S(=O)(O)O | > 46 µM
CC(O)C(=O)O.CCCCCCCCCCCCCCNCCO | > 46 µM
CC(=O)Nc1c(I)c(C(=O)N[C@H]2C(O)O[C@H](CO)[C@@H](O)[C@@H]2O)c(I)c(N(C)C(C)=O)c1I (some centres undefined) | > 46 µM
O=C(Nc1ccc(Cl)c(Cl)c1)C1CC1 | > 46 µM
CS(=O)(=O)OCCCCOS(C)(=O)=O | > 46 µM
CNCCCCOc1ccccc1Cc1ccccc1 | > 46 µM
COc1cc(C(=S)N2CCOCC2)ccc1O | > 46 µM
O=C(OOC(=O)c1ccccc1)c1ccccc1 | > 46 µM
COc1ccc2[nH]c(S(=O)Cc3ncc(C)c(OC)c3C)nc2n1 (centres undefined) | > 46 µM
C[C@]12CC[C@@H]3c4ccc(OC(=O)c5ccccc5)cc4CC[C@H]3[C@@H]1CC[C@@H]2O | > 46 µM
NC(=O)CCCCC1CCSS1 (centres undefined) | > 46 µM
CCOc1cc(OCC)c(C(=O)CCC(=O)O)cc1OCC | > 46 µM
F[C@@]([C@](C[C@@H]5F)([H])[C@@](C4)([H])[C@@]2(C)[C@@]1([C@](COC(C)=O)=O)[C@]4([H])OC(C)(C)O1)([C@@H](O)C2)[C@](C=C3)(C)C5=CC3=O | > 46 µM
NCCc1ccc(O)c(O)c1 | > 46 µM
